The experiment deals with NCI-H460. Kind of experiment: Cytotoxicity against human NCI-H460 cells assessed as cell survival at 0.9 uM measured after 48 hrs by MTT assay. It is filed as functional. The conditions noted are these: read-out: Activity. For orientation: Formazan colour is commonly taken as a measure of viable cells.

For the compound `C#CCCC[C@@H]1NC(=O)[C@H](C(C)C)N(C)C(=O)[C@H](C)N(C)C(=O)[C@H](COC)NC(=O)[C@H](C(C)C)N(C)C(=O)[C@H](CC(C)C)N(C)C(=O)[C@@H]2CCCN2C(=O)[C@H](C(C)C)NC(=O)[C@H](COC)N(C)C(=O)[C@H](C(C)C)NC(=O)[C@@H](C(C)C)OC(=O)[C@H]1C`, the viability at 0.9 µM came to 33%.

For the compound `C/C=C(\NC(=O)C(NC(=O)C(C)C(O)CCCCCCCCCCCCC(=O)CCCC)C(C)O)C(=O)NC(C)c1nc(C(=O)NC(C)C(C)=O)cs1` (stereo not drawn), the viability at 0.9 µM was 78%. Turning to `C#CCCC[C@@H]1NC(=O)[C@H](C(C)C)N(C)C(=O)[C@H](COC)N(C)C(=O)[C@H](C(C)C)NC(=O)[C@H](COC)N(C)C(=O)[C@H](C)N(C)C(=O)[C@H](C(C)C)N(C)C(=O)[C@@H]2CCCN2C(=O)[C@H](C(C)C)NC(=O)[C@H]([C@@H](C)CC)N(C)C(=O)[C@H](C(C)C)N(C)C(=O)[C@@H](C(C)C)OC(=O)[C@H]1C`, the viability at 0.9 µM came to 97%.

The values are drawn from ChEMBL document CHEMBL5032514, “Portobelamides A and B and Caciqueamide, Cytotoxic Peptidic Natural Products from a Caldora sp. Marine Cyanobacterium” (2021).
